# Data published in patent US10174002B2, “Pyridine derivatives as CFTR modulators” (NuBridge BioSciences, priority 2015, dated 2019).
# Structures can show the parent of a compound that is named as a salt.
# Biological target: T1, ΔF508 mutant CFTR (Homo sapiens, UniProt P13569, DEL508-508)
# T1 construct: expressed in transfected cells; host or cells: Fischer rat thyroid (FRT) cells, co-expressing the halide-sensitive YFP-H148Q/I152L
# Test: Fluorescence Assay of ΔF508 mutant CFTR activity (halide-sensitive YFP quenching by iodide influx in FRT cells)
# Assay type: cell-based
# Set-up: key: fold of mean activity with forskolin alone (I− quenching rate)
# Conditions: test compounds 20 μM with forskolin 20 μM, 20 min; FRT cells expressing ΔF508-CFTR and YFP-H148Q/I152L, incubated at 27° C. 20-24 h; rate of fluorescence quenching by I−, normalized to mean activity with forskolin alone
# Description: The ΔF508 mutant CFTR activities of the CFTR modulators are detected using the Fluorescence Assay developed by Pedemonte (Pedemonte N., et al., Antihypertensive 1,4-dihydropyridines as correctors of the cystic fibrosis transmembrane conductance regulator channel gating defect caused by cystic fibrosis mutations, Mol. Pharmacol., 2005, 68, 1736-1746).
# Fischer rat thyroid (FRT) cells, stably transfected with ΔF508 were retransfected with the YFP-H148Q/I152L fluorescent protein. The cells were plated (100,000 cells/well) on black 96-well microplates with clear plastic bottom (Corning Life Sciences, Acton, Mass.).
# The 96-well microplates containing FRT cells expressing F508-CFTR and the halide-sensitive YFP were incubated at 27° C. for 20 to 24 h to allow rescue of the mutant protein to the plasma membrane. After incubation, cells were washed with PBS (containing 137 mM NaCl, 2.7 mM KCl, 8.1 mM Na2HPO4, 1.5 mM KH2PO4, 1 mM CaCl2, and 0.5 mM MgCl2) and stimulated for 20 min with forskolin (20 μM) and test compounds (20 μM) in a final volume of 60 μl. Microplates were then transferred to a microplate reader for CFTR activity determination. Each assay consisted of a continuous 14-s fluorescence reading (5 points per second) with 2 s before and 12 s after injection of 165 μl of an iodide-containing solution (PBS with Cl^− replaced by I^−). Final iodide concentration in the wells was 100 mM. […] To determine I^− influx rate, the final 11 s of the data for each well were fitted with an exponential function to extrapolate initial slope. CFTR activity was determined by measuring the rate of fluorescence quenching induced by extracellular addition of I^−. Data are normalized to the mean activity measured in the presence of forskolin alone.
# T1 sequence (P13569 with tags, fused parts or gaps DEL508-508): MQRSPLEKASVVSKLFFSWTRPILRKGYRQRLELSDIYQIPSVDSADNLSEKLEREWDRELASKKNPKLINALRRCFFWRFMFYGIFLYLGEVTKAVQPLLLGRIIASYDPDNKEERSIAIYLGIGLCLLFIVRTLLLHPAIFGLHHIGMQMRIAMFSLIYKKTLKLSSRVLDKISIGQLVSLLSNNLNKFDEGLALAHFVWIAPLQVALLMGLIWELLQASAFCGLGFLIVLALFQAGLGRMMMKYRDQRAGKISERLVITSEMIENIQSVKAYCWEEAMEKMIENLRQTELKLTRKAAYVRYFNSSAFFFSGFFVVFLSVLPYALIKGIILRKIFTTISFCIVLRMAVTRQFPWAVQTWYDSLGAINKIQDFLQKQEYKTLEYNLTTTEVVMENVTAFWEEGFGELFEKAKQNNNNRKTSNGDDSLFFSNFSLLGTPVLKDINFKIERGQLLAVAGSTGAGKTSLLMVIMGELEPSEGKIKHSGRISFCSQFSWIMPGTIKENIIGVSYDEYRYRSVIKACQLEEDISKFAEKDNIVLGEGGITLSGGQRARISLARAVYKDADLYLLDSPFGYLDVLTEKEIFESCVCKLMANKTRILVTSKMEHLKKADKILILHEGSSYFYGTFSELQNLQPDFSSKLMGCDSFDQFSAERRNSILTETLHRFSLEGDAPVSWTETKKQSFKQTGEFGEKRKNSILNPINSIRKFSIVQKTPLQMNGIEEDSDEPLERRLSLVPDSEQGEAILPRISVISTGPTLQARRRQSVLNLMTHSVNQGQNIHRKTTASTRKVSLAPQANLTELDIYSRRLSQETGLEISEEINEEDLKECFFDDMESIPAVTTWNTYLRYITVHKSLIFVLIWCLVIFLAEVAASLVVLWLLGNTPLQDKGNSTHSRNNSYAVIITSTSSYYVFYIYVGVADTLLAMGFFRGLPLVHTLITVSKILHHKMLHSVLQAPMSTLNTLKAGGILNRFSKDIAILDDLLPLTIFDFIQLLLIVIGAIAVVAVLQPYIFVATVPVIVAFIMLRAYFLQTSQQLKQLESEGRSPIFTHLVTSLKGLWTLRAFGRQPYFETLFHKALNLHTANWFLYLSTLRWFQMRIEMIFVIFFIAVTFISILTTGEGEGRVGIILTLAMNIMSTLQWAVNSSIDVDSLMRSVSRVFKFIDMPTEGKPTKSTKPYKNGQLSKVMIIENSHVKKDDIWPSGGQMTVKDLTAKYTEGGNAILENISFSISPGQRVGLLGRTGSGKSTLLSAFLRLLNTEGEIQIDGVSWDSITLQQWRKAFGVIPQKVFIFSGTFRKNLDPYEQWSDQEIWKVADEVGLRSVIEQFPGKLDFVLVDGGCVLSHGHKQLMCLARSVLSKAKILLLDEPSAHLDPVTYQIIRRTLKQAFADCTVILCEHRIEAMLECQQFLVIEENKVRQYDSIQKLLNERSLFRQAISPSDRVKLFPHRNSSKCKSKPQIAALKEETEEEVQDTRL
row,Compound,CFTR Activity
1,"Cl.O=C(Nc1cnccc1OC1CCCNCC1)c1nc(-c2c(F)cccc2F)ccc1F (stereo not drawn) [Example 40, N-(4-(azepan-4-yloxy)pyridin-3-yl)-6-(2,6-difluorophenyl)-3-fluoropicolinamide hydrochloride]",1.8
2,"Cl.O=C(Nc1cnccc1OC1CCNCC1)c1ccc(F)c(-c2ccncc2)n1 [Example 39, 3-fluoro-N-(4-(piperidin-4-yloxy)pyridin-3-yl)-[2,4′-bipyridine]-6-carboxamide hydrochloride]",1.0
3,"Cl.NCC(CO)COc1ccncc1NC(=O)c1ccc(F)c(-c2c(F)cccc2F)n1 (stereo not drawn) [Example 56, N-(4-(3-amino-2-(hydroxymethyl)propoxy)pyridin-3-yl)-6-(2,6-difluorophenyl)-5-fluoropicolinamide hydrochloride]",2.4
4,"Cl.Nc1cc(F)c(-c2c(F)cccc2F)nc1C(=O)Nc1cnccc1O[C@H]1CC[C@H](N)CC1 [Example 27, 3-amino-N-(4-(((1r,4r)-4-aminocyclohexyl)oxy)pyridin-3-yl)-6-(2,6-difluorophenyl)-5-fluoropicolinamide hydrochloride]",4.5
5,"Cl.O=C(Nc1cnccc1OCC1CNC1)c1ccc(C(F)(F)F)c(-c2c(F)cccc2F)n1 [Example 44, N-(4-(azetidin-3-ylmethoxy)pyridin-3-yl)-6-(2,6-difluorophenyl)-5-(trifluoromethyl)picolinamide hydrochloride]",2.1
6,"Cl.Nc1cc(F)c(-c2c(F)cccc2F)nc1C(=O)Nc1cnccc1OC1CNC1 [Example 31, 3-amino-N-(4-(azetidin-3-yloxy)pyridin-3-yl)-6-(2,6-difluorophenyl)-5-fluoropicolinamide hydrochloride]",1.1
7,"Cl.Nc1cc(F)c(-c2c(F)cccc2F)nc1C(=O)Nc1cnccc1OCC1CNC1 [Example 32, 3-amino-N-(4-(azetidin-3-ylmethoxy)pyridin-3-yl)-6-(2,6-difluorophenyl)-5-fluoropicolinamide hydrochloride]",1.2
8,"Cl.NCC(CCl)COc1ccncc1NC(=O)c1nc(-c2c(F)cccc2F)c(C(F)(F)F)cc1N (stereo not drawn) [Example 55, 3-amino-N-(4-(3-amino-2-(chloromethyl)propoxy)pyridin-3-yl)-6-(2,6-difluorophenyl)-5-(trifluoromethyl)picolinamide hydrochloride]",5.5
9,"Cl.NCC(CO)COc1ccncc1NC(=O)c1nc(-c2c(F)cccc2F)c(C(F)(F)F)cc1N (stereo not drawn) [Example 59, 3-amino-N-(4-(3-amino-2-(hydroxymethyl)propoxy)pyridin-3-yl)-6-(2,6-difluorophenyl)-5-(trifluoromethyl)picolinamide hydrochloride]",3.1
10,"Cl.NCCCCOc1ccncc1NC(=O)c1nc(-c2c(F)cccc2F)c(F)cc1N [Example 36, 3-amino-N-(4-(4-aminobutoxy)pyridin-3-yl)-6-(2,6-difluorophenyl)-5-fluoropicolinamide hydrochloride]",2.3
11,"Cl.Nc1cc(F)c(-c2c(F)cccc2F)nc1C(=O)Nc1cnccc1OCC1CCNCC1 [Example 23, 3-amino-6-(2,6-difluorophenyl)-5-fluoro-N-(4-(piperidin-4-ylmethoxy)pyridin-3-yl)picolinamide hydrochloride]",2.5
12,"CC(C)(O)CCCOc1ccncc1NC(=O)c1ccc(F)c(-c2c(F)cccc2F)n1 [Example 20, 6-(2,6-difluorophenyl)-5-fluoro-N-(4-((4-hydroxy-4-methylpentyl)oxy)pyridin-3-yl)picolinamide]",0.1
13,"NCC(CCl)Oc1ccncc1NC(=O)c1ccc(F)c(-c2c(F)cccc2F)n1 (stereo not drawn) [Example 29, N-(4-((1-amino-3-chloropropan-2-yl)oxy)pyridin-5-yl)-6-(2,6-difluorophenyl)-5-fluoropicolinamide hydrochloride]",1.8
14,"Cl.NCC(CCl)COc1ccncc1NC(=O)c1ccc(F)c(-c2c(F)cccc2F)n1 (stereo not drawn) [Example 30, N-(4-(3-amino-2-(chloromethyl)propoxy)pyridin-5-yl)-6-(2,6-difluorophenyl)-5-fluoropicolinamide hydrochloride]",1.6
15,"Cl.Nc1cc(F)c(-c2c(F)cccc2F)nc1C(=O)Nc1cnccc1OC1CCCC(N)C1 (stereo not drawn) [Example 37, 3-amino-N-(4-((3-aminocyclohexyl)oxy)pyridin-3-yl)-6-(2,6-difluorophenyl)-5-fluoropicolinamide hydrochloride]",4.8
16,"Cl.O=C(Nc1cnccc1OCC1CCNC1)c1ccc(F)c(-c2c(F)cccc2F)n1 (stereo not drawn) [Example 8, 6-(2,6-difluorophenyl)-5-fluoro-N-(4-(pyrrolidin-3-ylmethoxy)pyridin-3-yl)picolinamide hydrochloride]",0.5
17,"CNCCCCOc1ccncc1NC(=O)c1ccc(F)c(-c2c(F)cccc2F)n1.Cl [Example 16, 6-(2,6-difluorophenyl)-5-fluoro-N-(4-(4-(methylamino)butoxy)pyridin-3-yl)picolinamide hydrochloride]",0.6
18,"Cl.O=C(Nc1cnccc1OCC1CCNCC1)c1ccc(F)c(-c2c(F)cccc2F)n1 [Example 1, 6-(2,6-difluorophenyl)-5-fluoro-N-(4-(piperidin-4-ylmethoxy)pyridin-3-yl)picolinamide hydrochloride]",1.4
19,"Cl.NCC(CCl)Oc1ccncc1NC(=O)c1nc(-c2c(F)cccc2F)c(F)cc1N (stereo not drawn) [Example 33, 3-amino-N-(4-((1-amino-3-chloropropan-2-yl)oxy)pyridin-3-yl)-6-(2,6-difluorophenyl)-5-fluoropicolinamide hydrochloride]",2.1
20,"O=C(Nc1cnccc1OCCCO)c1ccc(F)c(-c2c(F)cccc2F)n1 [Example 17, 6-(2,6-difluorophenyl)-5-fluoro-N-(4-(3-hydroxypropoxy)pyridin-3-yl)picolinamide]",0.2
21,"Cl.Nc1cc(F)c(-c2c(F)cccc2F)nc1C(=O)Nc1cnccc1OC1CCNCC1 [Example 25, 3-amino-6-(2,6-difluorophenyl)-5-fluoro-N-(4-(piperidin-4-yloxy)pyridin-3-yl)picolinamide hydrochloride]",3.2
22,"O=C(Nc1cnccc1OCCCCO)c1ccc(F)c(-c2c(F)cccc2F)n1 [Example 19, 6-(2,6-difluorophenyl)-5-fluoro-N-(4-(4-hydroxybutoxy)pyridin-3-yl)picolinamide]",0.3
23,"Cl.O=C(Nc1cnccc1OC1CCCNCC1)c1ccc(C(F)(F)F)c(-c2c(F)cccc2F)n1 (stereo not drawn) [Example 42, N-(4-(azepan-4-yloxy)pyridin-3-yl)-6-(2,6-difluorophenyl)-5-(trifluoromethyl)picolinamide hydrochloride]",2.7
24,"Cl.O=C(Nc1cnccc1OCC1CCNCC1)c1ccc(C(F)(F)F)c(-c2c(F)cccc2F)n1 [Example 43, 6-(2,6-difluorophenyl)-N-(4-(piperidin-4-ylmethoxy)pyridin-3-yl)-5-(trifluoromethyl)picolinamide hydrochloride]",2.3
25,"Cl.Nc1cc(C(F)(F)F)c(-c2c(F)cccc2F)nc1C(=O)Nc1cnccc1OC1CCCNCC1 (stereo not drawn) [Example 48, 3-amino-N-(4-(azepan-4-yloxy)pyridin-3-yl)-6-(2,6-difluorophenyl)-5-(trifluoromethyl)picolinamide hydrochloride]",5.2
26,"Cl.Nc1cc(F)c(-c2ccccc2)nc1C(=O)Nc1cnccc1OC1CCNC1 (stereo not drawn) [Example 38, 3-amino-5-fluoro-6-phenyl-N-(4-(pyrrolidin-3-yloxy)pyridin-3-yl)picolinamide hydrochloride]",1.7
27,"CN(C)CCCOc1ccncc1NC(=O)c1ccc(F)c(-c2c(F)cccc2F)n1.Cl [Example 14, 6-(2,6-difluorophenyl)-N-(4-(3-(dimethylamino)propoxy)pyridin-3-yl)-5-fluoropicolinamide hydrochloride]",0.2
28,"COc1cccc(F)c1-c1nc(C(=O)Nc2cnccc2OC2CCCNCC2)ccc1F.Cl (stereo not drawn) [Example 41, N-(4-(azepan-4-yloxy)pyridin-3-yl)-5-fluoro-6-(2-fluoro-6-methoxyphenyl)picolinamide hydrochloride]",2.0
29,"Cl.Nc1cc(C(F)(F)F)c(-c2c(F)cccc2F)nc1C(=O)Nc1cnccc1OC1CCCC(N)C1 (stereo not drawn) [Example 61, 3-amino-N-(4-((3-aminocyclohexyl)oxy)pyridin-3-yl)-6-(2,6-difluorophenyl)-5-(trifluoromethyl)picolinamide hydrochloride]",6.1
30,"Cl.NCC(CO)COc1ccncc1NC(=O)c1nc(-c2c(F)cccc2F)c(F)cc1N (stereo not drawn) [Example 57, 3-amino-N-(4-(3-amino-2-(hydroxymethyl)propoxy)pyridin-3-yl)-6-(2,6-difluorophenyl)-5-fluoropicolinamide hydrochloride]",2.1
